These results are taken from patent publication US6566580B1, “Neurological disease model” (priority 1996, dated 2003).

The test system of data set [1] is synaptic transmission in the Schaffer collateral-commissural pathway. Put plainly: L-AP4 depression of synaptic transmission, field EPSP recordings in hippocampal CA1 slices. Type of data set: cell-based, mice. Particulars: L-AP4 1 mM. As to the method: To investigate the possible functions of mGlu7 electrophysiological experiments are performed in the CA1 region of the hippocampus, a region rich in mGlu7. […] L-AP4 (1 mM) is therefore applied to wild-type and mGlu7^−/− mice. […] However, all three patterns are seen in both wild-type and mutant mice. On average there is no significance difference in the actions of L-AP4 between groups; the peak L-AP4 induced depressions for wild-type and mutant mice are 40±10% (n=15) and 33±10% (n=14), respectively (P>0.05). Furthermore, no statistically significant differences are seen in intrinsic or synaptic properties between wild-type and mutant mice. Also, paired-pulse facilitation is similar between both groups. Thus, the facilitation ratio obtained, using an interpulse interval of 50 ms, is 1.49±0.03 and 1.45±0.04 for wild-type (n=9) and mutant (n=9) mice, respectively (P>0.05).
Since certain members of the mGlu family have been implicated in the generation of LTP in area CA1, the ability of wild-type and mutant mice to support this form of synaptic plasticity is compared as follows. […]
There are no apparent differences in low frequency synaptic transmission between the two groups of mice. […] Statistical significance is determined using a repeated measures ANOVA test and unpaired Students t-tests. […]

For data set [2] the test system is unchanged. The conditions noted are these: 1 mM L-AP4, Schaffer collateral-commissural pathway, literature; cited from earlier work.
The target of another data set is mGlu7 (Rattus norvegicus, UniProt P35400). The conditions noted are these: high concentrations of L-AP4, e.g. 1 mM, recombinant systems; cited from earlier work.
Sequence of mGlu7 (P35400 35-915): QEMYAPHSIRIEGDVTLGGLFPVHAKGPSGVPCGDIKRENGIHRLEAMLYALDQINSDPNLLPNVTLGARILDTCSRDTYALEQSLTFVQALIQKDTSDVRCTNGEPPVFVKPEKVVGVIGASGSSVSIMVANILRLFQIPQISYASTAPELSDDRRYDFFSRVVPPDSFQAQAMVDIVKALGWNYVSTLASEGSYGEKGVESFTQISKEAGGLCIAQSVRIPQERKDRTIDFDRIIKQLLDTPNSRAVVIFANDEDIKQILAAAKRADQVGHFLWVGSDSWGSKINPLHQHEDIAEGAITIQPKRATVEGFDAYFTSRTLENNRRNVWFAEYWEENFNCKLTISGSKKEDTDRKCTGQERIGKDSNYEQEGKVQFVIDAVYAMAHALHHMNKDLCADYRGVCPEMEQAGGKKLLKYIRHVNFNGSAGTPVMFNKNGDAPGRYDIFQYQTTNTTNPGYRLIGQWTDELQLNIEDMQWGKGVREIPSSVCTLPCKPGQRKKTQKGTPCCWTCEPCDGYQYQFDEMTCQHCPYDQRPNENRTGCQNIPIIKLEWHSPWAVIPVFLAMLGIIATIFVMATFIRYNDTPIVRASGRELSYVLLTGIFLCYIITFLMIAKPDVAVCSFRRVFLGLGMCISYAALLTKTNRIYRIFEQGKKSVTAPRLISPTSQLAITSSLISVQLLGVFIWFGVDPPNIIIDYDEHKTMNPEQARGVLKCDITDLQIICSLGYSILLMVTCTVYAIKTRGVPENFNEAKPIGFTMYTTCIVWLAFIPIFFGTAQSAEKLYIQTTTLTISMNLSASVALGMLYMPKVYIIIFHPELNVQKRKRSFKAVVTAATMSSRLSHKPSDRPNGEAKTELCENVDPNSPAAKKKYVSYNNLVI
For data set [3], the system named is mice (mGluR7 -/-, +/-, +/+). The experiment in a line: Pentylenetetrazol (PTZ)-induced seizures in mGluR7 knockout, heterozygote and wild-type mice. Type of data set: in vivo. The conditions noted are these: PTZ 40 mg/kg i.p. As for the experimental part:
Intraperitoneal (i.p.) injection of a normally subconvulsive dose of PTZ (40 mg/kg) induced seizures in 9 out of 9 homozygous mGluR7 knockout mice (age 9 months) as shown in the Table below.
This sensitivity to a subconvulsive dose of PTZ is not yet evident at age 6 weeks but clearly evident at age 10 weeks in mGluR7 homozygous but not in heterozygous littermates as shown in the table below.

In a further data set the test system is mice (mGluR7 -/-, +/-). The experiment in a line: EEG recording with surface electrodes before and after PTZ injection. It counts as in vivo. Particulars: PTZ 40 mg/kg. As for the experimental part: In addition, two mGluR7−/− and two mGluR7+/− mice were equipped with surface electrodes to record EEGs before and after injection of 40 mg/kg PTZ.

Several values for one entry are separate records, joined by “and”; a condition that tells them apart may be missing. Identical values can stand only once.

Regarding `N[C@@H](CCP(=O)(O)O)C(=O)O` [L-AP4, (S)-2-amino-4-phosphonobutanoate], the “peak L-AP4 induced depression” value in data set [1] (mutant (mGlu7 -/-) mice, n=14) is listed as 33±10%; in data set [1] (wild-type mice, n=15) it was 40±10%. The “effect on synaptic transmission” value in data set [2] is recorded as “can depress synaptic transmission”. Moreover, the “activation of mGlu7” value at mGlu7 is on record as “can activate mGlu7”.

Consider `C1CCc2nnnn2CC1` [PTZ, Pentylenetetrazol], for which the “mice with induced seizures” value was 9 out of 9 in data set [3] (homozygous mGluR7 knockout mice, age 9 months) and “None of 9” in data set [3] (wild type mice (mGluR7+/+)). The Clonic activity in data set [3] (mGluR7 +/- heterozygote mice, per animal) was 3′; in data set [3] (mGluR7 -/- mice, age 6 weeks, per animal) it was 6′; in data set [3] (mGluR7 -/- mice, age 10 weeks, per animal), 2′ (2×) and 4′ (4×); in data set [3] (mGluR7 -/- mice, per animal) it was 2′ and 15′. Also, the “mice with clonic seizures” value in data set [3] (mGluR7+/- mice) is listed as 1 out of 9. In addition, the Exitus in data set [3] (mGluR7 -/- mice, per animal) was 4′ (2×) and 12′ and 11′ and 6′. Besides, the Tonic activity in data set [3] (mGluR7 -/- mice, per animal) is 3′ (2×) and 12′ and 2′ and 4′ and 6′. Further, the seizures following injection result in data set [3] (wild type non-transgenic mice tested in parallel with the 6 and 10 week experiments) is reported as “no seizures”. In addition, the “EEG after PTZ injection” value in the data set with mice (mGluR7 -/-, +/-) (homozygous mGluR7 knockout mice) was “typical signals reminiscent of seizure activity”; in the data set with mice (mGluR7 -/-, +/-) (mGluR7+/- mice), “no such activity developed”.
